These results are taken from patent US5710123A, “Peptide inhibitors of selectin binding” (Centocor, Inc., priority 1995, dated 1998).

Where a SMILES comes first, the peptide text is derived from it. Bridges are numbered along the chain shown (N, C = ends). Where no end group is shown, it is not given here.

The IC50 is the concentration that inhibits the measured activity by half. The low end stands for greater potency in that assay, the high end for weaker potency in that assay.

For the assay, the target named is T1, P-selectin (Homo sapiens, UniProt P16109).
T1 construct: from tissue; host or cells: outdated human platelet packs from a blood bank
T1 sequence (P16109 42-830): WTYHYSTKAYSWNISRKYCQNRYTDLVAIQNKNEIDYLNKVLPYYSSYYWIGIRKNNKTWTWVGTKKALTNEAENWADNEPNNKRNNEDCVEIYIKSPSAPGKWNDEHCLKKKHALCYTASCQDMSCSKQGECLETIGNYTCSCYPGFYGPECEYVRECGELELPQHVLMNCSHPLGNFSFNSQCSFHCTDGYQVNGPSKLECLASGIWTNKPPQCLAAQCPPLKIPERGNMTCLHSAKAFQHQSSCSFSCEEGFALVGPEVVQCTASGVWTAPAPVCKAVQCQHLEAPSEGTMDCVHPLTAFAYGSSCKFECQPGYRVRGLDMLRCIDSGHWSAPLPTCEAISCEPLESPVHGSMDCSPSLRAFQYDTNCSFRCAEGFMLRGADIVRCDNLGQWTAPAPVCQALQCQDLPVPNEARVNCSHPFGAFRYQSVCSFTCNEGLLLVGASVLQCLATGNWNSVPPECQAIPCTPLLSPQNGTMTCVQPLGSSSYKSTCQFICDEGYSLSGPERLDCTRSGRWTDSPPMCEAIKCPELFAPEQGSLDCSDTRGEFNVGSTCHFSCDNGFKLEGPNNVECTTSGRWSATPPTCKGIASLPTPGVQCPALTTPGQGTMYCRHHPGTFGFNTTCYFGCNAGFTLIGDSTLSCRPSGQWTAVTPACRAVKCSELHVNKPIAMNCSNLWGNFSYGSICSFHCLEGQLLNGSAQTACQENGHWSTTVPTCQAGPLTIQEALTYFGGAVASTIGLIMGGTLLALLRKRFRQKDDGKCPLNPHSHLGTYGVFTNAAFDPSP
The assay is described as follows: Inhibition of binding of human neutrophils to P-selectin (neutrophil adhesion to purified immobilized P-selectin, myeloperoxidase readout). The class given is cell-based. As to conditions: P-selectin purified from human platelets, plated at 5 micrograms/mL, peptides tested 1.0 mM to 0.001 mM. From the text: Peptides can be screened for their ability to inhibit adhesion to cells, for example, neutrophil adhesion to purified P-selectin immobilized on plastic wells, using the assay described by Geng, et al., Nature 343, 757-760 1990). Human neutrophils are isolated from heparinized […] blood by density gradient centrifugation on Mono-Poly resolving media, Flow Laboratories. Neutrophil suspensions are greater than 98% pure and greater than 95% viable by trypan blue exclusion. For adhesion assays, neutrophils are suspended at a concentration of 2×10^6 cells/mL in Hanks' balanced salt solution containing 1.26 mM Ca^2+ and 0.81 mM Mg^2+ (HBSS, Gibco) with […] human serum albumin (HBSS/HSA). Adhesion assays are conducted in triplicate in 96-well microtiter plates, Corning, incubated at 4° C. overnight with 50 microliters of various protein solutions. P-selectin is isolated from human platelet lysates by immunoaffinity chromatography on antibody S12-Sepharose™ and ion-exchange chromatography on a Mono-Q™ column (FLPC, Pharmacia Fine Chemicals), as follows. Outdated human platelet packs (100 units) obtained from a blood bank and stored at 4° C. are pooled, adjusted to 5 mM EDTA at pH 7.5, centrifuged at 4,000 rpm for 30 minutes in 1 liter bottles, then washed three times with 1 liter of 0.1M NaCl, 20 mM Tris pH 7.5 (TBS), 5 mM EDTA, 5 mM benzamidine. The pellets are then resuspended in a minimum amount of wash buffer and made 1 mM in DIFP, then frozen in 50 mL screwtop tubes at -80° C. The frozen platelets are thawed and resuspended in 50 mL TBS, 5 mM benzamidine, 5 mM EDTA pH 7.5, […]. The suspension is frozen and thawed two times in a dry ice-acetone bath using a 600 mL lyophilizing flask, then homogenized in a glass/teflon mortar and pestle and made 1 mM in DIFP. The NaCl concentration is adjusted to 0.5M with a stock solution of 4M NaCl. After stirring the suspension at 4° C., it is centrifuged in polycarbonate tubes at 33,000 rpm for 60 minutes at 4° C. The supernatant (0.5M NaCl wash) is removed and saved; this supernatant contains the soluble form of P-selectin. Care is taken not to remove the top part of the pellet with the supernatant. The pellets are then homogenized in extraction buffer (TBS, 5 mM benzamidine, 5 mM EDTA, pH 7.5, 100 μM leupeptin, 2% Triton X-100). After centrifugation at 19,500 rpm for 25 minutes at 4° C., the supernatant is removed. The extraction procedure is repeated with the pellet and the supernatant is combined with the first supernatant. The combined extracts, which contain the membrane form of P-selectin, are adjusted to 0.5M NaCl. The soluble fraction (0.5M NaCl wash) and the membrane extract (also adjusted to 0.5M NaCl) are absorbed with separate pools of the monoclonal antibody S12 (directed to P-selectin) previously coupled to Affigel (Biorad) at 5 mg/mL for 2 hours at 4° C. After letting the resins settle, the supernatants are removed. The S12 Affigel containing bound GMP-140 is then loaded into a column and washed overnight at 4° C. with 400 mL of 0.5M NaCl, 20 mM Tris pH 7.5, 0.01% Lubrol PX. Bound P-selectin is eluted from the S12 Affigel with 100 mL of 80% ethylene glycol, 1 mM MES pH 6.0, 0.01% Lubrol PX. Peak fractions with absorbance at 280 nm are pooled. Eluates are dialyzed against TBS with 0.05% Lubrol, then applied to a Mono Q column (FPLC from Pharmacia). The concentrated protein is step eluted with 2M NaCl, 20 mM Tris pH 7.5 (plus 0.05% Lubrol PX for the membrane fraction). Peak fractions are dialyzed into TBS pH 7.5 (plus 0.05% Lubrol PX for the membrane fraction). P-selectin is plated at 5 micrograms/mL and the control proteins: human serum albumin (Alb), platelet glycoprotein IIb/IIIa (IIb), von Willsbrand factor (vWF), fibrinogen (FIB), thrombomodulin (TM), gelatin (GEL) or human serum (HS), are added at 50 micrograms/mL. […]

Compound “SKKKLALLY-NH2 [SEQ ID NO: 38, SKKKLALLY--NH2]” showed an IC50 of 131 µM.

On to “Ac-SKRKLALCY-NH2 [SEQ ID NO: 53, Ac-SKRKLALCY--NH2]”, for which the IC50 turned out to be 12 µM. In turn, “Ac-SKRKRALCY-NH2 [SEQ ID NO: 55, Ac-SKRKRALCY--NH2]” had an IC50 of 26 µM.

For the compound “Ac-SKKKTALCY-NH2 [SEQ ID NO: 47, Ac-SKKKTALCY--NH2]”, the IC50 came out at 82 µM. Under `CC(C)C[C@@H]1NC(=O)[C@H](C)NC(=O)[C@H](CC(C)C)NC(=O)[C@H](CCCCN)NC(=O)[C@H](CCCCN)NC(=O)[C@H](CCCCN)NC(=O)[C@H](CO)NC(=O)[C@@H](N)CSSC[C@@H](C(=O)N[C@@H](Cc2ccc(O)cc2)C(N)=O)NC1=O` [SEQ ID NO: 5] (H-CSKKKLALCY-NH2; disulfide 1-9) stands 78 µM.

Take “SKKKLAFCY-NH2 [SEQ ID NO: 27, SKKKLAFCY--NH2]”: the IC50 turned out to be 86 µM. Under “SKKKLALIV-NH2 [SEQ ID NO: 33, SKKKLALIV--NH2]” stands 390 µM; under “SKKKLALIY-NH2 [SEQ ID NO: 35, SKKKLALIY--NH2]”, 43 µM; under “HKKKLALCY-NH2 [SEQ ID NO: 10, HKKKLALCY--NH2]”, 55 µM. In turn, “Ac-SKRRLALCY-NH2 [SEQ ID NO: 57, Ac-SKRRLALCY--NH2]” registered an IC50 of 8 µM. Regarding “SKKKHALCY-NH2 [SEQ ID NO: 25, SKKKHALCY--NH2]”, the half-maximal inhibitory concentration (IC50) turned out to be 656 µM. Under “SKKKLALHY-NH2 [SEQ ID NO: 36, SKKKLALHY--NH2]” stands 177 µM; under “LKKKLALCY-NH2 [SEQ ID NO: 13, LKKKLALCY--NH2]”, 65 µM; under “Ac-SRRKLALCY-NH2 [SEQ ID NO: 68, Ac-SRRKLALCY--NH2]”, 27 µM. Under `CC(C)C[C@@H]1NC(=O)[C@H](C)NC(=O)[C@H](Cc2c[nH]cn2)NC(=O)[C@H](CCCCN)NC(=O)[C@H](CCCCN)NC(=O)[C@H](CCCCN)NC(=O)[C@H](CC(C)C)NC(=O)[C@@H](N)CSSC[C@@H](C(=O)N[C@@H](Cc2ccc(O)cc2)C(N)=O)NC1=O` [SEQ ID NO: 4, Cyclo-(cystinyl-leucyl-lysyl-lysyl-lysyl-histidyl-alanyl-leucyl-cystinyl)-tyrosine-amide] (H-CLKKKHALCY-NH2; disulfide 1-9) stands 626 µM. To “Ac-SRARLALCY-NH2 [SEQ ID NO: 61, Ac-SRARLALCY--NH2]” belongs 47 µM.

“SSKKLALCY-NH2 [SEQ ID NO: 70, SSKKLALCY--NH2]”: the concentration for half-maximal inhibition (IC50) stood at 282 µM. To “SKKKLALTY-NH2 [SEQ ID NO: 41, SKKKLALTY--NH2]” belongs 423 µM.

For “SRKKLALCY-NH2 [SEQ ID NO: 64, SRKKLALCY--NH2]”, the half-maximal inhibitory concentration (IC50) was determined as 16 µM.

For “SKKKLALCY-NH2 [SEQ ID NO: 31, SKKKLALCY--NH2]”, the IC50 stood at 19 µM. In turn, “Ac-NKKKLALCY-NH2 [SEQ ID NO: 14, Ac-NKKKLALCY--NH2]” returned an IC50 of 53 µM.

Compound “Ac-SRKRLALCY-NH2 [SEQ ID NO: 65, Ac-SRKRLALCY--NH2]” showed an IC50 of 18 µM. To “SKKFLALCY-NH2 [SEQ ID NO: 22, SKKFLALCY--NH2]” belongs 554 µM; to “Ac-SKKKLALCY-NH2 [SEQ ID NO: 49, Ac-SKKKLALCY--NH2]”, 9 µM; to “SKHKLALCY-NH2 [SEQ ID NO: 21, SKHKLALCY--NH2]”, 888 µM.

As for “SKKKLAICY-NH2 [SEQ ID NO: 28, SKKKLAICY--NH2]”, the concentration for half-maximal inhibition (IC50) is 107 µM. “SKKKLQACY-NH2 [SEQ ID NO: 46, SKKKLQACY--NH2]” gave an IC50 of 329 µM. To “Ac-SKLKLALCY-NH2 [SEQ ID NO: 51, Ac-SKLKLALCY--NH2]” belongs 12 µM. To “Ac-FKKKLALCY-NH2 [SEQ ID NO: 7, Ac-FKKKLALCY--NH2]” belongs 74 µM; to “NKKKLALCY-NH2 [SEQ ID NO: 15, NKKKLALCY--NH2]”, 19 µM; to `CC(C)C[C@H](NC(=O)[C@H](C)NC(=O)[C@H](CC(C)C)NC(=O)[C@H](CCCCN)NC(=O)[C@H](CCCCN)NC(=O)[C@H](CCCCN)NC(=O)[C@H](CO)NC(=O)[C@@H](N)CS)C(=O)N[C@@H](CS)C(=O)N[C@@H](Cc1ccc(O)cc1)C(N)=O` [SEQ ID NO: 2, Cystinyl-serinyl-lysyl-lysyl-lysyl-leucyl-alanyl-leucyl-cystinyl-tyrosine-amide] (H-CSKKKLALCY-NH2), 48 µM.

The compound “Ac-LKKKLALCY-NH2 [SEQ ID NO: 12, Ac-LKKKLALCY--NH2]” showed an IC50 of 26 µM. On to “SKKKLFLCY-NH2 [SEQ ID NO: 43, SKKKLFLCY--NH2]”, for which the concentration for half-maximal inhibition (IC50) turned out to be 95 µM. “SKKKLALFY-NH2 [SEQ ID NO: 32, SKKKLALFY--NH2]” registered a half-inhibitory concentration (IC50) of 15 µM.

On to “SKKKLALVY-NH2 [SEQ ID NO: 40, SKKKLALVY--NH2]”, for which the 50% inhibitory concentration (IC50) was 233 µM. Compound “SKRKRALCY-NH2 [SEQ ID NO: 56, SKRKRALCY--NH2]” returned an IC50 of 24 µM. To “Ac-SKAKLALCY-NH2 [SEQ ID NO: 19, Ac-SKAKLALCY--NH2]” belongs 60 µM; to “PKKKLALCY-NH2 [SEQ ID NO: 16, PKKKLALCY--NH2]”, 103 µM; to “SKRKLALCY-NH2 [SEQ ID NO: 54, SKRKLALCY--NH2]”, 4 µM. On to “Ac-SKKKLALLY-NH2 [SEQ ID NO: 37, Ac-SKKKLALLY--NH2]”, for which the half-inhibitory concentration (IC50) was 88 µM. Under “SKKKAALCY-NH2 [SEQ ID NO: 24, SKKKAALCY--NH2]” stands 232 µM; under “SKRRLALSY-NH2 [SEQ ID NO: 59, SKRRLALSY--NH2]”, 632 µM; under “SKKKLHLCY-NH2 [SEQ ID NO: 44, SKKKLHLCY--NH2]”, 207 µM. Under “SRRKLALCY-NH2 [SEQ ID NO: 69, SRRKLALCY--NH2]” stands 14 µM. Under “SKKQLALCY-NH2 [SEQ ID NO: 48, SKKQLALCY--NH2]” stands 195 µM.

Take “SKLKLALCY-NH2 [SEQ ID NO: 52, SKLKLALCY--NH2]”: the concentration for half-maximal inhibition (IC50) turned out to be 9 µM. To “SKSKLALCY-NH2 [SEQ ID NO: 60, SKSKLALCY--NH2]” belongs 858 µM; to “SKKKIALCY-NH2 [SEQ ID NO: 26, SKKKIALCY--NH2]”, 62 µM.
